The target in the assay is CDK8/cyclin C (Homo sapiens (Human), UniProt P49336). As to the kind of experiment: LanthaScreen Eu Kinase Binding Assay for CDK8/cyclin C. As to conditions: 10-point curve, 4-fold dilution series, 60 min at room temperature. For orientation: In TR-FRET formats the signal depends on donor and acceptor labels being close together.
Chain of CDK8/cyclin C (P49336 whole entry, looked up): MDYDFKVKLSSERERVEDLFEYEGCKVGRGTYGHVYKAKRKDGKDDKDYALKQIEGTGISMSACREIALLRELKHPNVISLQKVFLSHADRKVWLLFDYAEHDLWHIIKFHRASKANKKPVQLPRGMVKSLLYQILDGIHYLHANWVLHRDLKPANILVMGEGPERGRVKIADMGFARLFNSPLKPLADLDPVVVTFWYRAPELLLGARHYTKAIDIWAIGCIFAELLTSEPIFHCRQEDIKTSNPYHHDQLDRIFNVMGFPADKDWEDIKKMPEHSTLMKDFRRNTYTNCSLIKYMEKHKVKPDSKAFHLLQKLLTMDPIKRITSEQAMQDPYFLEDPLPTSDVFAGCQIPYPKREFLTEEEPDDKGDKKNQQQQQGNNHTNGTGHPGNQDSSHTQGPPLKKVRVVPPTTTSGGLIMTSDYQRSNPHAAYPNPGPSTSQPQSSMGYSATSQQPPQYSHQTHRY
Chain of CDK8/cyclin C (P24863 whole entry partner, looked up): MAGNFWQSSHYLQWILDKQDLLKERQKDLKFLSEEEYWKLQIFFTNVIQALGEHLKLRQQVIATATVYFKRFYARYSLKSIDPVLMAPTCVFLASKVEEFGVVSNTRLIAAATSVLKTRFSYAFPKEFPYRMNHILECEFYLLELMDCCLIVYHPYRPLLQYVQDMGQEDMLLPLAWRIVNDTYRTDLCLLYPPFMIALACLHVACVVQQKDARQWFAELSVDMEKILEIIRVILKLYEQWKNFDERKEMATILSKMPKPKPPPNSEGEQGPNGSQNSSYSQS

What is called IC50 is the point on the concentration scale where inhibition reaches its midpoint. Read a high IC50 as lower potency. Turning to `O=C1NCCC12CCN(c1c(-c3ccc4scnc4c3)cnc3[nH]ccc13)CC2` [Compound 002, 8-(5-(benzo[d]thiazol-5-yl)-1H-pyrrolo[2,3-b]pyridin-4-yl)-2,8-diazaspiro[4.5]decan-1-one], the IC50 was 6.46 nM.

In turn, `O=C1NCCC12CCN(c1c(-c3ccc4ncsc4c3)cnc3[nH]ccc13)CC2` [Compound 004, 8-(5-(benzo[d]thiazol-6-yl)-1H-pyrrolo[2,3-b]pyridin-4-yl)-2,8-diazaspiro[4.5]decan-1-one] yielded an IC50 of 24.5 nM. The figure for `Cn1cnc2cc(-c3cnc4[nH]ccc4c3N3CCC4(CCNC4=O)CC3)ccc21` [Compound 005, 8-(5-(1-methyl-1H-benzo[d]imidazol-5-yl)-1H-pyrrolo[2,3-b]pyridin-4-yl)-2,8-diazaspiro[4.5]decan-1-one] is 32.2 nM; for `Cn1ncc2cc(-c3cnc4[nH]ccc4c3N3CCC4(CCCNC4=O)CC3)ccc21` [Compound 006, 9-(5-(1-methyl-1H-indazol-5-yl)-1H-pyrrolo[2,3-b]pyridin-4-yl)-2,9-diazaspiro[5.5]undecan-1-one] it is 3 nM; for `O=C1NCCC12CCN(c1c(-c3ccc4ncnn4c3)cnc3[nH]ccc13)CC2` [Compound 007, 8-(5-([1,2,4]triazolo[1,5-a]pyridin-6-yl)-1H-pyrrolo[2,3-b]pyridin-4-yl)-2,8-diazaspiro[4.5]decan-1-one] it is 274 nM.

Turning to `O=C1NCCC12CCN(c1c(-c3ccc4[nH]cnc4c3)cnc3[nH]ccc13)CC2` [Compound 008, 8-(5-(1H-benzo[d]imidazol-5-yl)-1H-pyrrolo[2,3-b]pyridin-4-yl)-2,8-diazaspiro[4.5]decan-1-one], the IC50 amounted to 4.97 nM.

`O=C1NCCC12CCN(c1c(-c3ccn4ccnc4c3)cnc3[nH]ccc13)CC2` [Compound 009, 8-(5-(imidazo[1,2-a]pyridin-7-yl)-1H-pyrrolo[2,3-b]pyridin-4-yl)-2,8-diazaspiro[4.5]decan-1-one] displayed an IC50 of 76.4 nM. This IC50 is about 15-fold higher than that of the molecule before. As for `Cn1ncc2cc(-c3cnc4[nH]ccc4c3N3CCC4(CC3)CNC4=O)ccc21` [Compound 010, 7-(5-(1-methyl-1H-indazol-5-yl)-1H-pyrrolo[2,3-b]pyridin-4-yl)-2,7-diazaspiro[3.5]nonan-1-one], the figure is 6.3 nM; as for `Cn1ncc2cc(-c3cnc4[nH]ccc4c3N3CCC4(CC3)CNC(=O)O4)ccc21` [Compound 011, 8-(5-(1-methyl-1H-indazol-5-yl)-1H-pyrrolo[2,3-b]pyridin-4-yl)-1-oxa-3,8-diazaspiro[4.5]decan-2-one], 7 nM; as for `Cn1ncc2cc(-c3cnc4[nH]ccc4c3N3CCC4(CC3)NC(=O)NC4=O)ccc21` [Compound 014, 8-(5-(1-methyl-1H-indazol-5-yl)-1H-pyrrolo[2,3-b]pyridin-4-yl)-1,3,8-triazaspiro[4.5]decane-2,4-dione], 3 nM. As for `Cn1ncc2cc(-c3cnc4[nH]cnc4c3N3CCC4(CCNC4=O)CC3)ccc21` [Compound 016, 8-(6-(1-methyl-1H-indazol-5-yl)-3H-imidazo[4,5-b]pyridin-7-yl)-2,8-diazaspiro[4.5]decan-1-one], the figure is 10 nM. As for `Cn1ncc2cc(-c3cnc4[nH]ccc4c3N3CCC4(CCNC4=O)C3)ccc21` (stereo not shown) [Compound 017, 7-(5-(1-methyl-1H-indazol-5-yl)-1H-pyrrolo[2,3-b]pyridin-4-yl)-2,7-diazaspiro[4.4]nonan-1-one], the figure is 55 nM; as for `Cn1ncc2cc(-c3cnc4[nH]cc(Cl)c4c3N3CCC4(CCNC4=O)CC3)ccc21` [Compound 018, 8-(3-chloro-5-(1-methyl-1H-indazol-5-yl)-1H-pyrrolo[2,3-b]pyridin-4-yl)-2,8-diazaspiro[4.5]decan-1-one], 1.73 nM; as for `Cn1ncc2cc(-c3cnc4sccc4c3N3CCC4(CCNC4=O)CC3)ccc21` [Compound 019, 8-(5-(1-methyl-1H-indazol-5-yl)thieno[2,3-b]pyridin-4-yl)-2,8-diazaspiro[4.5]decan-1-one], 206 nM. Molecule `Cn1ncc2cc(-c3cnc4[nH]nc(Cl)c4c3N3CCC4(CCNC4=O)CC3)ccc21` [Compound 020] displayed an IC50 of 1.37 nM. In turn, `Cc1n[nH]c2ncc(-c3ccc4c(cnn4C)c3)c(N3CCC4(CCNC4=O)CC3)c12` [Compound 021] registered a 50% inhibitory concentration (IC50) of 36 nM.

These data come from patent US12410194B2, “Potent and selective azaindole inhibitors of CDK8 and CDK19” (priority 2019, dated 2025).
